Test results as given in US20060046972A1, “Cytotoxic nucleoside analog compound 003 for treating cancer” (Parker Hughes Institute, priority 2004, published 2006).

Test system: Lewis rats
Experiment: Cumulative toxicity of intraperitoneal doses in Lewis rats
Assay type: in vivo
Design: RBC: unit not given here
Settings: for ALC / ALT / ANC / AST / Albumin / Ammonia / Amylase / BUN / CPK / Calcium / Creatinine / Mean Weight Change (g ± SEM) / Mean Weight Change [%] / Morbidity / Phosphate / RBC / Total Bilirubin / Total Protein / Toxic Organ Lesions / Triglycerides / WBC / Weight Gain / Weight Loss: day 30
Protocol: 1.2.8 Animals Female CD-1 mice (Body weight: ˜25 g; Age: 7 week old) were purchased, from Charles River Laboratories (Willmington, Mass., USA). MMTV Neu-mice [FVB/N-TgN(MMTV neu)202MUL; Jackson Laboratory, Bar Harbor, Me.] were bred to produce multiple litters. All mice were housed in microisolator cages (Lab Products, Inc., Maywood, N.Y., USA) containing autoclaved bedding in a controlled specific pathogen-free (SPF) environment (12-h light/12-h dark photoperiod, 22±1° C., 60±10% relative humidity), which is fully accredited by the USDA (United States Department of Agriculture). Adult male Lewis rats (Body weight: ˜160 g) were obtained from the specific pathogen-free (SPF) breeding facilities of Harlan Sprague Dawley (Indianapolis, Id., USA) at 14 weeks of age. All husbandry and experimental contact made with the mice and rats maintained SPF conditions. The rats were kept in microisolater cages (Allentown Caging Equipment Co., Inc., Allentown, N.J., USA) containing autoclaved food, water, and bedding. Animal studies were approved by Parker Hughes Institute Animal Care and Use Committee and all animal care procedures 1.5 conformed to the Guide for the Care and Use of Laboratory Animals (National Research Council, National Academy Press, Washington D.C. 1996, USA).
The toxicity profile of Compound 003 in CD-1 mice and Lewis rats was examined, using standard procedures as previously reported for other experimental drugs (Uckun, et al., 2003, Arzneimittelforschun. 53:357; Uckun, et al., 2002, Clin Cancer Res. 8: 1224; Uckun, et al., 2002, Antimicrob Agents Chemother. 46:3428). In brief, mice and rats were treated with intraperitoneal injections of vehicle or Compound 003 at multiple dose levels. Compound 003 was administered as a 0.2 mL (for mice) or 0.5 mL (for rats) bolus injection containing 10% DMSO as a vehicle. Animals were allowed free access to autoclaved standard pellet food and tap water throughout the experiments and monitored daily for morbidity and mortality. Animals were electively sacrificed on day 7 or day 30 to determine the toxicity of Compound 003 by examining their blood chemistry profiles, blood counts, and evaluating multiple organs for the presence of toxic lesions. Blood was collected by intracardiac puncture following anesthesia with ketamine:xylazine and immediately heparinized. The blood chemistry profiles were examined using a Synchron CX5CE Chemical Analyzer (Beckman Instruments, Inc., Fullerton, Calif., USA). Blood counts (red blood cells [RBC], white blood cells [WBC] and platelets [Plt]) were determined using a HESKA Vet ABC-Diff Hematology Analyzer (HESKA Corporation, Fort Collins, Colo., USA). Absolute neutrophil counts (ANC) and absolute lymphocyte counts (ALC) were calculated from WBC values after determining the percentages of neutrophils and lymphocytes by a manual differential count. At the time of necropsy, […] from mice (bone, bone marrow, brain, cecum, heart, kidney, large intestine, liver, lung, lymph node, ovary, pancreas, skeletal muscle, skin, small intestine, spleen, stomach, thymus, thyroid gland, urinary bladder, and uterus, as available) and 21 different tissues from rats (bone, bone marrow, brain, coagulating gland, epididymis, heart, large intestine, small intestine, kidney, liver, lung, pancreas, peripheral nerve/spinal nerve, skeletal muscle, skin, spinal cord, spleen, stomach, testes, thymus, urinary bladder) were collected within 15 minutes after sacrifice, gross pathological findings were documented, organs were preserved in 10% neutral phosphate buffered formalin, and processed for histopathological examination. For histopathologic studies, formalin fixed tissues were dehydrated and embedded in paraffin by routine methods. Glass slides with affixed 4-5 micron tissue sections were prepared and stained with Hemotoxylin and Eosin (H&E). […]

[1] = 20 mg/kg i.p. for 30 consecutive days
[2] = 40 mg/kg i.p. for 30 consecutive days
[3] = 80 mg/kg i.p. for 30 consecutive days

COC(=O)C(C)NP(=O)(OCC1OC(n2cc(C)c(=O)[nH]c2=O)CC1N=[N+]=[N-])Oc1ccc(OC)cc1 (stereo not shown) [Compound 003, 3′-azidothymidine 5′-[p-methoxyphenylmethoxyalaninyl phosphate]]
ALC [1]: 9.6 ± 0.0 ×10^9L
ALT [1]: 68.0 ± 5.5 IU/L
ANC [1]: 2.4 ± 0.0 ×10^9L
AST [1]: 7.6 ± 1.6 IU/L
Albumin [1]: 1.5 ± 0.0 g/dL
Ammonia [1]: 77.2 ± 4.1 µmol/L
Amylase [1]: 1667.1 ± 29.8 U/L
BUN [1]: 21.8 ± 0.4 mg/dL
CPK [1]: 546.1 ± 109.9 IU/L
Calcium [1]: 10.9 ± 0.1 mg/dL
Creatinine [1]: 0.6 ± 0.0 mg/dL
Mean Weight Change (g ± SEM) [1]: 9.02 ± 1.39 g
Mean Weight Change [%] [1]: (2.68 ± 0.41%)
Morbidity [1]: 0/10
Phosphate [1]: 6.2 ± 0.2 mg/dL
RBC [1]: 10.0 ± 0.1 ×10^9
Total Bilirubin [1]: 0.6 ± 0.1 mg/dL
Total Protein [1]: 6.3 ± 0.1 g/dL
Toxic Organ Lesions [1]: 0/10
Triglycerides [1]: 87.4 ± 9.9 mg/dL
WBC [1]: 11.9 ± 0.4 ×10^9/L
Weight Gain [1]: 10/10
Weight Loss [1]: 0/10
ALC [2]: 10.7 ± 0.0 ×10^9L
ALT [2]: 64.2 ± 1.4 IU/L
ANC [2]: 1.9 ± 0.0 ×10^9L
AST [2]: 6.8 ± 1.0 IU/L
Albumin [2]: 1.6 ± 0.0 g/dL
Ammonia [2]: 91.4 ± 8.2 µmol/L
Amylase [2]: 1586.3 ± 31.4 U/L
BUN [2]: 21.8 ± 0.3 mg/dL
CPK [2]: 409.4 ± 55.3 IU/L
Calcium [2]: 10.4 ± 0.1 mg/dL
Creatinine [2]: 0.5 ± 0.0 mg/dL
Mean Weight Change (g ± SEM) [2]: 9.66 ± 1.36 g
Mean Weight Change [%] [2]: (2.85 ± 0.38%)
Morbidity [2]: 0/10
Phosphate [2]: 5.6 ± 0.1 mg/dL
RBC [2]: 10.1 ± 0.1 ×10^9
Total Bilirubin [2]: 0.6 ± 0.1 mg/dL
Total Protein [2]: 6.1 ± 0.1 g/dL
Toxic Organ Lesions [2]: 0/10
Triglycerides [2]: 103.0 ± 10.7 mg/dL
WBC [2]: 12.9 ± 0.4 ×10^9/L
Weight Gain [2]: 10/10
Weight Loss [2]: 0/10
ALC [3]: 10.0 ± 0.0 ×10^9L
ALT [3]: 62.5 ± 1.8 IU/L
ANC [3]: 2.1 ± 0.0 ×10^9L
AST [3]: 9.4 ± 0.7 IU/L
Albumin [3]: 1.6 ± 0.0 g/dL
Ammonia [3]: 92.8 ± 6.0 µmol/L
Amylase [3]: 1658.3 ± 51.8 U/L
BUN [3]: 22.7 ± 0.7 mg/dL
CPK [3]: 371.0 ± 44.3 IU/L
Calcium [3]: 10.5 ± 0.2 mg/dL
Creatinine [3]: 0.6 ± 0.0 mg/dL
Mean Weight Change (g ± SEM) [3]: 7.37 ± 1.70 g
Mean Weight Change [%] [3]: (2.24 ± 0.51%)
Morbidity [3]: 0/10
Phosphate [3]: 5.9 ± 0.1 mg/dL
RBC [3]: 9.8 ± 0.1 ×10^9
Total Bilirubin [3]: 0.7 ± 0.1 mg/dL
Total Protein [3]: 6.3 ± 0.1 g/dL
Toxic Organ Lesions [3]: 0/10
Triglycerides [3]: 83.4 ± 11.2 mg/dL
WBC [3]: 12.2 ± 0.3 ×10^9/L
Weight Gain [3]: 9/10
Weight Loss [3]: 1/10
postmortem gross pathology (20-80 mg/kg/day for 30 days): did not reveal any gross pathological findings
Slight tubular degeneration, share of animals (80 and 40 mg/kg): 50%
systemic toxicity by blood tests (day 30, 20-80 mg/kg/day): did not suggest any significant systemic toxicity
tolerability (i.p. daily for up to 30 days, daily dose as high as 80 mg/kg, cumulative as high as 2.4 g/kg): well tolerated
